Converted amounts (≈) assume the structure as drawn. Read-outs that look alike come from different tables or passages of the source.
Legend:
Assay in all cases: MIC 90, broth micro-dilution, ATCC strains
[1] = test system: E. coli ATCC BAA-1025 (= BL 21); type: cell-based, Escherichia coli
From the text: (§1) 3.3 Protocol for MIC Determination (ATCC Strains)
(§2) Tested reference compounds. Amikacin sulfate (Cat. No. 01693, Chem-Impex), Gentamicin sulfate (Cat. No. G4918, Sigma Aldrich), Azithromycin (Cat. No. 1046056, USP), Ceftazidime Pentahydrate (Cat. No. 1098130, USP), Ciprofloxacin (Cat. No. 1134313, USP), Meropenem (Cat. No. 1392454, USP), Rifampicin (Cat. No. R0079, TCI), Tobramycin (Cat. No. 1667508, USP), Vancomycin (Cat. No. 1709007 USP).
(§3) Microbial strains. Staphylococcus aureus ATCC 29213, Staphylococcus aureus ATCC BAA-1717, Escherichia coli ATCC BAA-1025, Klebsiella pneumoniae ATCC BAA-1705, Klebsiella pneumoniae ATCC BAA-2524, Pseudomonas aeruginosa ATCC 27853, Pseudomonas aeruginosa ATCC BAA-2108, Acinetobacter baumannii ATCC BAA-1800.
(§4) Culture media and equipment. BBL™ Mueller Hinton Broth (REF 275730, Lot. 7009699, Becton Dickinson), Mueller Hinton Agar 2 (Ref. No. 97580-500G-F, Lot. No. BCBV4646, Sigma), Dulbecco's Modified Eagle's Medium (DMEM) (Cat. No. 41966-029, Gibco), Minimum Essential Medium (MEM) (Cat. No. 42360-024, Gibco), Fetal bovine serum (FBS) (Cat. No. F7524, Sigma), Non-essential amino acids (NEAA) (100×, Cat. No. 11140-035, Gibco), Sodium Pyruvate (100 mM, 100×, Cat. No. 11360-039, Gibco), Staurosporine (Cat. No. B50188, Biotrend), Cellstar 96-well plates U-bottom (Cat. No. 650180, Lot. No. E14123EB, Greiner Bio-one), CellTiter-Glo (Cat. No. G7573, Promega), 96-well plate V-bottom (Cat. No. 651201, Greiner), 96-well clear plate, U-bottom, (Cat. No. 650180, Greiner), 96-well white plate with clear bottom (Cat. No. 655098, Greiner), 96-well deep well plate 1 mL (Cat. No. 278606, Nunc), Sodium Pyruvate (100 mM, 100×, Gibco, Cat #11360-039), Incubator (Binder), Laminar flow (Thermo Scientific), BioPhotometer (Eppendorf); DEN-1B (McFarland Densitometer, Biosan); McFarland standards (polymer microparticle suspension, Biosan).
(§5) Compound preparation. The test compounds and reference antibiotics were prepared according to CLSI guidelines (Clinical and Laboratory Standards Institute (CLSI); Methods for dilution antimicrobial susceptibility tests for bacteria that grow aerobically; approved standard—ninth edition, M07-A9, Vol. 32, No. 2, 2012) as 5 mg/mL stock solutions in DMSO. Out of these DMSO solutions, 43.5 μL was transferred to 1656.5 μL of MH media in a deep well plate. Out of these working solutions 100 μL was transferred to wells in the third column of 96-well plates. Plates were previously filled with 50 μL of MH media in all wells except for the wells in the third column. After compound and antibiotic addition, 50 μL was transferred from the third to the fourth column, then from the fourth to the fifth and so on. In this manner, the compounds and antibiotics were plated in 96-well plate in serial two-fold dilutions giving a final concentration range of 64-0.125 μg/mL.
(§6) Preparation of microorganisms. Designations used for clinical isolates were from the Fidelta strain collection bank. Microorganisms used were all revived from skim milk storage at −70° C. by plating them on MH agar plates. The following day the single colony of each microorganism was again streaked on fresh agar plates. The next day, using the direct colony suspension method, broth solutions that achieve turbidity equivalent to 0.5 McFarland standard for each microorganism were prepared. […] Out of these suspensions, actual inoculums were prepared by diluting them 100× with MH media giving a final microorganism count of 2-8×10^5 CFU/mL. For each strain of microorganisms, 20 mL of these inoculum solutions were prepared. From the second to the twelfth column of 96-well plates, 50 μL of these solutions were transferred per well. To the first column, 50 μL per well of pure growth media was added. In this manner the first column was used as sterility control of media, the second column was used as control of microorganism's growth and the rest of the plate was used for MIC determination. All plates were incubated for 16-24 h at 37° C. […]

[2] = test system: S. aureus ATCC 29213; type: cell-based, Staphylococcus aureus
From the text: as §1, §2, §3, §4, §5, §6

[3] = test system: P. aeruginosa ATCC 27853; type: cell-based, Pseudomonas aeruginosa
From the text: as §1, §2, §3, §4, §5, §6

[4] = Escherichia coli, ATCCBAA1025, read-out: MIC 90
[5] = Staphylococcus aureus, ATCC29213, read-out: MIC 90
[6] = Pseudomonas aeruginosa, ATCC27853, read-out: MIC 90

SMILES	MIC90 [1] [µM]	MIC90 [2] [µM]	MIC90 [3] [µM]	MIC90 [1, 4] [µM]	MIC90 [2, 5] [µM]	MIC90 [3, 6] [µM]
NCC[C@H](O)C(=O)N[C@@H]1CC(N)[C@@H](O[C@H]2OC(CN)[C@@H](O)CC2N)[C@H](F)C1OC1O[C@H](CO)[C@@H](O)C(N)[C@H]1O (stereo partly drawn) [ABX5024, Tobra-AHB-F]	1 (≈ 0.571 µg/mL)	1 (≈ 0.571 µg/mL)	2 (≈ 1.14 µg/mL)	–	–	–
N=C(N)N[C@@H]1[C@@H](O)[C@@H](O[C@@H]2[C@@H](O)[C@H](O[C@H]3O[C@H](CN)[C@@H](O)[C@@H](O)[C@H]3N)[C@@H](N)C[C@H]2NC(=O)[C@@H](O)CCN)O[C@H](CO)[C@H]1O [ABX4005, 3′Epi-KanaB-AHB-Gua]	8 (≈ 5.01 µg/mL)	2 (≈ 1.25 µg/mL)	4 (≈ 2.51 µg/mL)	–	–	–
N=C(N)NC1[C@@H](O)C(OC2[C@@H](F)[C@H](O[C@H]3OC(CN)[C@@H](O)[C@H](O)C3O)C(N)C[C@H]2NC(=O)[C@@H](O)CCN)O[C@H](CO)[C@H]1O (stereo partly drawn) [ABX3003, 3′epi-KanaA-AHB-F-Gua]	–	–	–	4 (≈ 2.52 µg/mL)	2 (≈ 1.26 µg/mL)	8 (≈ 5.04 µg/mL)
NCC[C@H](O)C(=O)N[C@@H]1CC(N)[C@@H](O[C@H]2OC(CN)[C@@H](O)[C@@H](O)C2N)[C@H](F)C1OC1O[C@H](CO)[C@@H](O)C(N)[C@H]1O (stereo partly drawn) [ABX4003, 3′Epi-KanaB-AHB-F]	4 (≈ 2.35 µg/mL)	4 (≈ 2.35 µg/mL)	8 (≈ 4.69 µg/mL)	–	–	–
N=C(NCCCN)NC1[C@@H](O)C(OC2[C@@H](F)[C@H](O[C@H]3OC(CN)[C@@H](O)CC3N)C(N)C[C@H]2NC(=O)[C@@H](O)CCN)O[C@H](CO)[C@H]1O (stereo partly drawn) [ABX5030, Tobra-AHB-F-Gua-3-amino-propyl]	–	–	–	1 (≈ 0.67 µg/mL)	0.5 (≈ 0.335 µg/mL)	0.5 (≈ 0.335 µg/mL)
N=C(N)NC1[C@@H](O)C(OC2[C@@H](O)[C@H](O[C@H]3OC(CN)[C@@H](O)CC3N)C(N)C[C@H]2NC(=O)[C@@H](O)CCN)O[C@H](CO)[C@H]1O (stereo partly drawn) [ABX5005, Tobra-AHB-Gua]	2 (≈ 1.22 µg/mL)	1 (≈ 0.611 µg/mL)	4 (≈ 2.44 µg/mL)	–	–	–
NCCC(O)C(=O)NC1CC(N)C(OC2OC(CN)C(O)C(O)C2O)C(F)C1OC1OC(CO)C(O)C(N)C1O (stereo not drawn) [ABX3005, 3′Epi-KanaA-AHB-F]	8 (≈ 4.7 µg/mL)	4 (≈ 2.35 µg/mL)	8 (≈ 4.7 µg/mL)	–	–	–
N=C(N)NC1[C@@H](O)C(OC2[C@@H](F)[C@H](O[C@H]3OC(CN)[C@@H](O)[C@H](O)C3N)C(N)C[C@H]2NC(=O)[C@@H](O)CCN)O[C@H](CO)[C@H]1O (stereo partly drawn) [ABX4004, 3′epi-KanaB-AHB-F-Gua]	–	–	–	2 (≈ 1.26 µg/mL)	2 (≈ 1.26 µg/mL)	4 (≈ 2.51 µg/mL)
NCC[C@H](O)C(=O)N[C@@H]1CC(N)[C@@H](O[C@H]2OC(CN)[C@@H](O)CC2N)[C@H](O)C1OC1O[C@H](CO)[C@@H](O)C(N)[C@H]1O (stereo partly drawn) [ABX5004, Tobra-AHB]	2 (≈ 1.14 µg/mL)	1 (≈ 0.569 µg/mL)	4 (≈ 2.27 µg/mL)	–	–	–
NCC[C@H](O)C(=O)N[C@@H]1CC(N)[C@@H](O[C@H]2OC(CN)[C@@H](O)[C@@H](O)C2N)[C@H](O)C1OC1O[C@H](CO)[C@@H](O)C(N)[C@H]1O (stereo partly drawn) [ABX4002, 3′Epi-KanaB-AHB]	8 (≈ 4.68 µg/mL)	2 (≈ 1.17 µg/mL)	4 (≈ 2.34 µg/mL)	–	–	–
NCC[C@H](O)C(=O)N[C@@H]1C[C@H](N)[C@@H](O[C@H]2O[C@H](CN)[C@@H](O)[C@@H](O)[C@H]2O)[C@H](O)[C@H]1O[C@H]1O[C@H](CO)[C@@H](O)[C@H](N)[C@H]1O [ABX3002, 3′Epi-KanaA-AHB]	32 (≈ 18.7 µg/mL)	16 (≈ 9.37 µg/mL)	32 (≈ 18.7 µg/mL)	–	–	–

— US20220127297A1, “Novel Antibacterial 3"-Derivatives Of 4,6-Disubstituted 2,5-Dideoxystreptamine Aminoglycoside Antibiotics” (AGILeBiotics B.V., priority 2018, published 2022)
